Here are results for 25 molecules from ChEMBL document CHEMBL4402520, “Synthetic routes and structure-activity relationships (SAR) of anti-HIV agents: A key review” (Eur J Med Chem, 2019).

SMILES strings stand for the structures. In brackets after ≈: the same amount, converted by molar mass.

In general, IC50 refers to the midpoint of a concentration-inhibition curve. One may read the CC50 as the concentration giving 50% cytotoxicity. Read a high CC50 as lower toxicity to the cells. The EC50 is the concentration at which the effect is half-maximal. As a reminder, the inhibition is the relative decrease from the control value, in per cent.

For data set [1], the system named is Human immunodeficiency virus 1. The data set is described as follows: Antiviral activity against wild type HIV1 3B infected in human MT4 cells using [3H]dGTP by radio-labelled binding assay. The following applies: Human immunodeficiency virus 1, 3B. Type of data set: functional, organism-based.
The subject of data set [2] is TZM. Put plainly: Cytotoxicity against human TZM-bl cells. Type of data set: functional.
In data set [3] the test system is Human immunodeficiency virus 1. The data set is described as follows: Antiviral activity against wild type HIV1 3B infected in human TZM-bl cells. Format: functional, organism-based. The note with it: Human immunodeficiency virus 1, 3B.
For data set [4], the system named is Human immunodeficiency virus 1. The data set is described as follows: Antiviral activity against wild type HIV1 3B infected in human TZM-bl cells assessed as viral infection at 50 ug/ml after 1 hr relative to control. Format: functional. The note with it: Human immunodeficiency virus 1, 3B.
Data set [5] deals with TZM. The data set is described as follows: Cytotoxicity against human TZM-bl cells assessed as reduction in cell viability after 4 hrs by MTT assay. Format: functional. Background: Tetrazolium assays rely on reduction of a dye to a coloured formazan, in cell work by metabolically active cells.
In data set [6] the test system is Human immunodeficiency virus 2. The data set is described as follows: Antiviral activity against HIV2 ROD after 48 hrs […]. Type of data set: functional, organism-based. The following applies: Human immunodeficiency virus 2, ROD.
For data set [7], the system named is Human immunodeficiency virus 1. Put plainly: Antiviral activity against HIV1 3B after 48 hrs […]. The following applies: Human immunodeficiency virus 1, 3B. Type of data set: functional, organism-based.
Data set [8] has as its system Human immunodeficiency virus 1. The data set is described as follows: Antiviral activity against HIV1. Type of data set: functional, organism-based.
Data set [9] relates to Human immunodeficiency virus 1. Put plainly: Antiviral activity against wild type HIV1 3B infected in human TZM-bl cells after 4 days by ELISA. The following applies: Human immunodeficiency virus 1, 3B, 96 h. Format: functional, organism-based.
A short description of data set [10]: Selectivity index, ratio of CC50 for human TZM-bl cells to EC50 for wild type HIV1 3B infected in human TZM-bl cells. Format: toxicity, cell-based. The following applies: read-out: Selectivity Index.
Data set [11] has as its system Human immunodeficiency virus 1. The data set is described as follows: Antiviral activity against HIV1 3B infected in human C8166 cells. Type of data set: functional, organism-based.
Data set [12] in a line: Selectivity index, ratio of CC50 for human C8166 cells to EC50 for HIV1 3B infected in human C8166 cells. Format: toxicity, cell-based. The following applies: read-out: Selectivity Index.
Data set [13] concerns the target T1, Human immunodeficiency virus type 1 reverse transcriptase (Human immunodeficiency virus 1, UniProt Q72547). Put plainly: Inhibition of wild type HIV-1 reverse transcriptase.
The nature of data set [14]: Inhibition of HIV-2 ROD9 integrase Y143C mutant. Also on record: species or system Human immunodeficiency virus 2.
Data set [15] is described as follows: Inhibition of HIV-2 ROD9 integrase E92Q/N155H double mutant. Also on record: species or system Human immunodeficiency virus 2.
A short description of data set [16]: Inhibition of HIV-2 ROD9 integrase G140S mutant. Also noted: species or system Human immunodeficiency virus 2.
Data set [17] is described as follows: Inhibition of HIV-2 ROD9 integrase T97A mutant. Also on record: species or system Human immunodeficiency virus 2.
The target in data set [18] is T2, Human immunodeficiency virus type 2 integrase (Human immunodeficiency virus 2, UniProt P89582).
T2 sequence (P89582 whole entry): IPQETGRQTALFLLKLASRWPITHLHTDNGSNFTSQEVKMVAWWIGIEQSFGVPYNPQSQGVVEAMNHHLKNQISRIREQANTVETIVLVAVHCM
Put plainly: Inhibition of wild type HIV-2 ROD9 integrase.

The nature of data set [19]: Inhibition of HIV-2 ROD9 integrase Q148R mutant. Also on record: species or system Human immunodeficiency virus 2.
A short description of data set [20]: Inhibition of HIV-2 ROD9 integrase N155H mutant. Also on record: species or system Human immunodeficiency virus 2.
A short description of data set [21]: Inhibition of HIV-2 ROD9 integrase Q148H mutant. Also noted: species or system Human immunodeficiency virus 2.
The nature of data set [22]: Inhibition of HIV-2 ROD9 integrase E92Q mutant. Also on record: species or system Human immunodeficiency virus 2.
Data set [23] is described as follows: Inhibition of HIV-2 ROD9 integrase G140S/Q148R double mutant. Also on record: species or system Human immunodeficiency virus 2.
The nature of data set [24]: Inhibition of HIV-2 ROD9 integrase T97A/N155H double mutant. Also noted: species or system Human immunodeficiency virus 2.
The nature of data set [25]: Inhibition of HIV-2 ROD9 integrase E92Q/Y143C double mutant. Also noted: species or system Human immunodeficiency virus 2.
Data set [26] can be described thus: Inhibition of HIV-2 ROD9 integrase T97A/Y143C double mutant. Also noted: species or system Human immunodeficiency virus 2.
For data set [27], the target named is T1, Human immunodeficiency virus type 1 reverse transcriptase. The data set is described as follows: Inhibition of HIV-1 reverse transcriptase after 1 hr by ELISA.
Data set [28] in a line: Inhibition of HIV reverse transcriptase. Also on record: species or system Human immunodeficiency virus.
The subject of data set [29] is C8166. Put plainly: Cytotoxicity against human C8166 cells assessed as reduction in cell viability. Format: functional, cell-based.
Data set [30] has as its system Human immunodeficiency virus 2. The data set is described as follows: Antiviral activity against HIV2 ROD. Type of data set: functional, organism-based. The note with it: Human immunodeficiency virus 2, ROD.
Data set [31] deals with Human immunodeficiency virus 1. The data set is described as follows: Antiviral activity against HIV1 3B. Format: functional, organism-based. The note with it: Human immunodeficiency virus 1, 3B.
For data set [32], the system named is Human immunodeficiency virus. The data set is described as follows: Antiviral activity against HIV. Type of data set: functional, organism-based. The following applies: Human immunodeficiency virus 1.
Data set [33] deals with Human immunodeficiency virus 1. The data set is described as follows: Antiviral activity against wild type HIV1. Type of data set: functional, organism-based.

In data set [1], `Cc1cccc(N2C(=O)CSC2c2c(F)cccc2F)n1` (configuration not stated) displayed an IC50 of 82 nM.

`CCOC(=O)C(N)(c1c[nH]c2cccc(C(=O)OC)c12)C(F)(F)F` (configuration not stated): in data set [2], the midpoint of cytotoxicity, the CC50, lay at 110000 nM. For the same molecule, in data set [3], the EC50 turned out to be 60 nM.

With `NC1=CNC(=O)/C1=N/Nc1cccc(Cl)c1`, the inhibition at 50 µg/mL in data set [4] was found to be 93%. Further, the Activity in [5] is on record as 52%.

`Cc1ccccc1NC(=O)CSC1[Se]N=NC1c1ccc(Cl)c(Cl)c1` (configuration not stated): the EC50 in data set [6] was above 22300 nM; in data set [7], 5560 nM.

`O=c1[nH]c(=O)n([C@H]2C[C@H](O)[C@@H](CO)O2)cc1C#CCOc1ccc(OCc2ccccc2)cc1` gave a concentration for half-maximal inhibition (IC50) in data set [8] of 6680 nM.

For `Cc1cccc(N2C(=O)CSC2c2c(Cl)cccc2Cl)n1` (configuration not stated), in data set [1], the IC50 was 44 nM.

In data set [2], `CC1OC(=O)c2ccccc2C1(Cl)c1ccc(C#Cc2ccccc2)cc1` (configuration not stated) showed a CC50 of 215000 nM. This molecule also registered an EC50 in [9] of 242000 nM. In addition, in data set [10], the selectivity ratio came out at 0.9.

`CC(C)c1c(CC2CCCCC2)nc(SCc2ccccc2)[nH]c1=O`: the 50% effective concentration (EC50) in [11] (Human immunodeficiency virus 1, 3B, C8166) came to 0.025 nM. The selectivity ratio in data set [12] was in the range of 691 to 6.32e+06.

The molecule `COC(=O)CCCC=C(c1cc(Cl)c(OC)c(C(=O)SC)c1)c1cc(Cl)c(OC)c(C(=O)SC)c1` displayed an EC50 in data set [13] of 1600 nM.

As to `O=C(CSC1[Se]N=NC1c1ccc(Cl)c(Cl)c1)Nc1ccccc1Br` (configuration not stated), the 50% effective concentration (EC50) in [6] and in [7] was above 23600 nM in each case.

For the molecule `CC(=O)c1ccc(NC(=O)CSC2[Se]N=NC2c2ccc(Cl)c(Cl)c2)c(Br)c1` (configuration not stated), the EC50 in data set [6] was above 19000 nM; in [7], 2450 nM.

With `C[C@@H]1CCO[C@H]2Cn3cc(C(=O)NCc4ccc(F)cc4F)c(=O)c(O)c3C(=O)N12` [DOLUTEGRAVIR], the 50% effective concentration (EC50) came out at 7.7 nM in [14]; 25 nM in data set [15]; 3.2 nM in data set [16]; 3.2 nM in data set [17]; 2.3 nM in data set [18]; 5.7 nM in data set [19]. Moreover, the 50% effective concentration (EC50) in [20] was 5 nM; in data set [21], 3.5 nM; in [22] it was 7.7 nM; in [23] it was 108 nM; in data set [24], 27 nM; in [25] it was 15 nM. The molecule also came in with an EC50 in data set [26] above 10000 nM.

Molecule `COc1ccccc1C(=O)CC1(O)C(=O)Nc2ccc(Cl)cc21` (configuration not stated) displayed a half-maximal inhibitory concentration (IC50) in data set [27] of 270 nM.

`CC(C)c1c(CC2CCCCC2)nc(SCC(=O)c2ccccc2)[nH]c1=O`: the EC50 in data set [11] was in the range of 0.012 to 101 nM. Further, the selectivity ratio in data set [12] lay within 691 to 6.32e+06.

Turning to `O=C(CN(Cc1ccccc1)c1ccc(Cl)cc1)N1CCN(c2cccc(Cl)c2Cl)CC1`, half-maximal inhibition in data set [28] (IC50) was put at 12300 nM.

With `O=C(CSC1[Se]N=NC1c1ccc(Cl)c(Cl)c1)Nc1ccccc1Cl` (configuration not stated), the EC50 in data set [6] and in data set [7] was above 23400 nM each time.

Molecule `O=C(CN(Cc1ccccc1)c1ccc(Cl)cc1)N1CCN(c2ccc([N+](=O)[O-])cc2)CC1` gave an IC50 in data set [28] of 14200 nM.

Regarding `COc1ccc2c(c1)CCCN2CCC(=O)N1CCN(c2ccccc2)CC1`, the half-maximal inhibitory concentration (IC50) in data set [27] was 24200 nM; in data set [29], 83.2 µg/mL (≈ 219 µM). The selectivity ratio in [12] is 5.9.

In data set [28], `COc1ccccc1N1CCN(C(=O)CN(Cc2ccccc2)c2ccc(Cl)cc2)CC1` gave an IC50 of 16300 nM.

Take `Cn1cc(C(=O)O)c(=O)c2ccc(N3CCN(c4nccs4)CC3)nc21`: the EC50 stood at 0.922 µg/mL (≈ 2.48 µM) in data set [30] and 3.15 µg/mL (≈ 8.48 µM) in [31].

Regarding `O=C(CN(Cc1ccccc1)c1ccc(Cl)cc1)N1CCN(C(c2ccccc2)c2ccccc2)CC1`, in [28], the half-maximal inhibitory concentration (IC50) was above 100000 nM.

For the molecule `O=C(N[C@H]1C(=O)Nc2ccccc2C2CCCN21)OCc1ccccc1` (some centres not stated), it took 860 nM to reach a half-maximal effect in [8] (EC50).

Consider `Cc1cc(C)cc(Cn2c(=O)cc(N)n(Cc3ccncc3)c2=O)c1`, for which the response in [32] was half-maximal at 30 nM (EC50). This counts as double-digit nanomolar.

Take `COc1ccc2c(c1)CCCN2CCC(=O)N1CCN(c2ccccc2C)CC1`: the figures for the half-inhibitory concentration (IC50) in data set [27] and in data set [29] were 12500 nM and 114 µg/mL (≈ 291 µM), respectively. In data set [12], the selectivity ratio was found to be 24.2.

As for `N#Cc1ccc(Nc2nccc(Oc3ccccc3F)n2)cc1`, in data set [33], the half-maximal effective concentration (EC50) worked out at 5.8 nM.
